Like-named read-outs stand apart in the source and are kept apart here.
Columns and labels:
Mdr2^−/− mice [1] = test: First study: dietary supplementation of Mdr2−/− mice (mouse model of human PSC and PFIC) for 17 weeks; conditions: mono-treatment, 0.03% OCA or 1% THBA (w/w) in diet, from 3 to 20 weeks of age, female mice
Mdr2^−/− mice [2] = conditions: mouse, in vivo

| SMILES | adverse effects (Mdr2^−/− mice [1]) | adverse effects (Mdr2^−/− mice [2]) | liver indicator profiles (bilirubin, ALT, ALP, total bile acids in plasma) (Mdr2^−/− mice [1]) |
| --- | --- | --- | --- |
| CC[C@H]1[C@@H](O)[C@@H]2[C@H](CC[C@]3(C)[C@@H]([C@H](C)CCC(=O)O)CC[C@@H]23)[C@@]2(C)CC[C@@H](O)C[C@@H]12 [OCA, Obeticholic acid, reference compound] | no significant, obvious, adverse effects |  |  |
| C[C@H](CCC(=O)O)[C@H]1CC[C@H]2[C@@H]3[C@H](O)[C@H](O)[C@@H]4C[C@H](O)CC[C@]4(C)[C@H]3C[C@H](O)[C@]12C [THBA, 3α, 6α, 7α, 12α-tetrahydroxy-5β-cholan-24-oic acid] |  | no significant, obvious, adverse effects | significantly improved liver indicator profiles |

— US20220227804A1, “COMBINATION OF A POLYHYDROXYLATED BILE ACID AND A FARNESOID X RECEPTOR AGONIST” (QING BILE THERAPEUTICS INC., priority 2019, published 2022)
